Tests used:
[1] = High-fat diet intake after oral administration under overnight fasting; assay type: in vivo; conditions: male mice raised on high-fat diet (60% kcal fat)
Experimental: Male mice raised on a high-fat diet (60% kcal fat) were orally administered with the digested product under overnight fasting conditions, and the amount of food intake was measured over time (N=14-15). […] The data were analyzed by two-way analysis of variance, followed by multiple comparisons by Tukey's test. […] The error bars represent standard error (n=14-15).
The data were analyzed by two-way analysis of variance, followed by multiple comparisons by Tukey's test. […] The error bars represent standard error (n=9).
Male mice raised on a high-fat diet (60% kcal fat) were orally administered with Rubisco-derived peptide YHIEPV under overnight fasting conditions, and the amount of food intake was measured over time (N=11). […] The data were analyzed by two-way analysis of variance, followed by multiple comparisons by the Bonferroni test. […] The error bars represent standard error (n=11).
The data were analyzed by two-way analysis of variance, followed by multiple comparisons by Tukey's test. […] The error bars represent standard error (n=7-8).
The data were analyzed by two-way analysis of variance, followed by multiple comparisons by Tukey's test. In FIG. 10, the error bars represent standard error (n=5-7).

[2] = molecular target: T1, δ opioid receptor (Mus musculus, UniProt P32300); experiment: Impact of naltrindole on high-fat diet intake suppression induced by oral YHIEPV; assay type: in vivo, mice; conditions: YHIEPV oral plus naltrindole intraperitoneal; food intake 4 hours later
T1 construct: from tissue; host or cells: living male mice (whole animal)
Experimental: (§1) Male mice raised on a high-fat diet (60% kcal fat) were administered under overnight fasting conditions with YHIEPV (oral administration) and naltrindole (intraperitoneal administration), which is a δ opioid receptor inhibitor, or HS024 (intracerebroventricular administration), which is an MC4 receptor inhibitor, and the amount of food intake was measured 4 hours later (N=13-15). The δ opioid receptor and MC4 receptor are receptors involved in feeding behavior. […] The data were analyzed by one-way analysis of variance, followed by multiple comparisons by Tukey's test. […] The error bars represent standard error (n=13-15).

[3] = molecular target: T2, MC4 receptor (Mus musculus, UniProt P56450); experiment: Impact of HS024 on high-fat diet intake suppression induced by oral YHIEPV; assay type: in vivo, mice; conditions: YHIEPV oral plus HS024 intracerebroventricular; food intake 4 hours later
T2 construct: from tissue; host or cells: living male mice (whole animal)
Experimental: as §1

[4] = Long-term oral administration: body weight gain caused by high-fat diet; assay type: in vivo; conditions: 0.3 mg/kg oral once a day, male mice on high-fat diet
Experimental: Male mice raised for at least one month on a high-fat diet (60% kcal fat) were orally administered with YHIEPV (0.3 mg/kg) once a day. The body weight and the amount of food intake were measured daily, and the amount of food intake was calculated as cumulative food intake (N=10). […] The data were analyzed by two-way analysis of variance, followed by multiple comparisons by the Bonferroni test. […] The error bars represent standard error (n=10).

[5] = test system: leptin; experiment: Serum leptin level by ELISA after five-week oral administration; assay type: in vivo, mice; conditions: after five-week oral administration 0.3 mg/kg
Experimental: (§2) After the five-week oral administration of YHIEPV in Test Example 4, the blood was collected under anesthesia. Subsequently, the blood was centrifuged, and the serum was collected. The leptin level in the serum was determined by ELISA (according to the manufacturer's protocol) (N=10). The fat mass (peritesticular fat and mesenteric fat) was also measured at the same time as blood sampling (N=9). […] The data were analyzed by t-test. […] The error bars represent standard error (n=9-10).

[6] = Fat mass (peritesticular and mesenteric fat) after five-week oral administration; assay type: in vivo, mice; conditions: after five-week oral administration 0.3 mg/kg
Experimental: as §2

[7] = test system: phosphorylated STAT3 signal; experiment: Intracellular leptin sensitivity in hypothalamic organ culture (phosphorylated STAT3 immunostaining); assay type: cell-based; conditions: peptide 100 μM preincubation 24 hours, leptin 30 nM 1 hour
Experimental: Subsequently, formalin fixation was performed and the phosphorylated STAT3 signal was detected by an immunostaining chemistry method (N=6-7). […] The data were analyzed by one-way analysis of variance, followed by multiple comparisons by Tukey's test. […] The error bars represent standard error (n=6-8).

[8] = test system: phosphorylated STAT3 signal; experiment: Leptin resistance induced by Forskolin (Rap1 pathway stimulation) in hypothalamic organ culture; assay type: cell-based; conditions: Forskolin 20 μM and YHIEPV 100 μM 6 hours, leptin 60 nM 1 hour
Experimental: A hypothalamic organ culture system was preincubated with Forskolin (20 μM) and YHIEPV (100 μM) for 6 hours, followed by leptin stimulation (60 nM) for 1 hour. Subsequently, formalin fixation was performed and the phosphorylated STAT3 signal was detected by an immunostaining chemistry method (N=6-7). Forskolin is known to induce leptin resistance via the Rap1 activation pathway. […] The data were analyzed by one-way analysis of variance, followed by multiple comparisons by Tukey's test. […] The error bars represent standard error (n=5-9).

[9] = Anti-obesity effect of intracerebroventricularly administered leptin with oral YHIEPV; assay type: in vivo, mice; conditions: YHIEPV 0.3 mg/kg oral, leptin 0.5 μg intracerebroventricular
Experimental: A guide cannula was placed in the lateral ventricle of male mice raised on a high-fat diet (60% kcal fat) for at least one month, and a recovery period of at least 1 week was then provided. Subsequently, the body weight change and the amount of food intake were measured after the addition of YHIEPV (0.3 mg/kg, oral administration) and leptin (0.5 μg, intracerebroventricular administration) (N=10-12). […] The data were analyzed by two-way analysis of variance, followed by multiple comparisons by Tukey's test. […] The error bars represent standard error (n=10-12).

[10] = test system: IL-6; experiment: Hypothalamic gene expression by RT-qPCR after high-fat diet; assay type: in vivo, mice; conditions: hypothalamus, 0.3 mg/kg oral for 5 days
Experimental: (§3) Male mice were raised for at least one month on a high-fat diet (60% kcal fat) and were orally administered with YHIEPV (0.3 mg/kg) for 5 days, and hypothalamic and brain samples were then collected. The expression levels of genes associated with leptin resistance (SOCS-3, PTP1B, and TCPTP) and inflammatory cytokines (IL-6, IL1β, TNFα) in the hypothalamus were measured by RT-qPCR. Active Rap1 in the brain was quantified by using the Active Rap1 Pull-down assay kit and the Detection Kit according to the manufacturer's protocol (N=4). […] The data were analyzed by t-test. […] The error bars represent standard error (n=4).

[11] = test system: IL1β; experiment: as above; assay type: in vivo, mice; conditions: hypothalamus, 0.3 mg/kg oral for 5 days
Experimental: as §3

[12] = test system: PTP1B; experiment: as above; assay type: in vivo, mice; conditions: hypothalamus, 0.3 mg/kg oral for 5 days
Experimental: as §3

[13] = test system: SOCS-3; experiment: as above; assay type: in vivo, mice; conditions: hypothalamus, 0.3 mg/kg oral for 5 days
Experimental: as §3

[14] = test system: TCPTP; experiment: as above; assay type: in vivo, mice; conditions: hypothalamus, 0.3 mg/kg oral for 5 days
Experimental: as §3

[15] = test system: TNFα; experiment: as above; assay type: in vivo, mice; conditions: hypothalamus, 0.3 mg/kg oral for 5 days
Experimental: as §3

[16] = test system: Active Rap1; experiment: Active Rap1 pull-down assay in brain; assay type: in vivo, mice; conditions: 0.3 mg/kg oral for 5 days
Experimental: as §3

[17] = previously discovered, PTL 2; cited from earlier work

T1 sequence (P32300 whole entry): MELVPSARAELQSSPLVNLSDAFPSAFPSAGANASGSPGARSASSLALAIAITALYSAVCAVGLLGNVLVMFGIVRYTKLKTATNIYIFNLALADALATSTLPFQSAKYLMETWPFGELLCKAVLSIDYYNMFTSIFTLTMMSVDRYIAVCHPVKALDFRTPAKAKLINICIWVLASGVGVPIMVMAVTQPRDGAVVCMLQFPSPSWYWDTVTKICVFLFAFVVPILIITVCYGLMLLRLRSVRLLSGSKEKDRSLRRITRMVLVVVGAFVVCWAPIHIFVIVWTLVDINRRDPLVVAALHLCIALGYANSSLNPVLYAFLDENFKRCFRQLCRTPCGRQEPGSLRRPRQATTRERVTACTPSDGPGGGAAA
T2 sequence (P56450 whole entry): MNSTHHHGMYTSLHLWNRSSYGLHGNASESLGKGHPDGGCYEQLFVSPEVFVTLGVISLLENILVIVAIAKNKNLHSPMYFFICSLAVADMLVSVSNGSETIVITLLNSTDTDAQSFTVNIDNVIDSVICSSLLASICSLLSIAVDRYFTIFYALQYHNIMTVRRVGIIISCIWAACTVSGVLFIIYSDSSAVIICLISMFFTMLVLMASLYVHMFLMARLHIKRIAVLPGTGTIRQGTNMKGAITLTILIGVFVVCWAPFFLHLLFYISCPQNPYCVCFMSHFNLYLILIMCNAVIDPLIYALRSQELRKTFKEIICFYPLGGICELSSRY

| Substance | high-fat diet intake (amount of food intake over time) [1] | effect of suppressing high-fat diet intake in presence of δ opioid receptor inhibitor [2] | effect of suppressing high-fat diet intake in presence of MC4 receptor inhibitor [3] | body weight gain caused by a high-fat diet [4] | blood leptin level [5] | fat mass [6] | intracellular leptin sensitivity in the hypothalamus [7] | leptin resistance induced by Forskolin [8] | anti-obesity effect of intracerebroventricularly administered leptin (body weight change, food intake) [9] | expression level of IL-6 [10] | expression level of IL1β [11] | expression level of PTP1B [12] | expression level of SOCS-3 [13] | expression level of TCPTP [14] | expression level of TNFα [15] | expression level of active Rap1 [16] | anxiolytic effect [17] |
| --- | --- | --- | --- | --- | --- | --- | --- | --- | --- | --- | --- | --- | --- | --- | --- | --- | --- |
| YHIEPV (listed as Spinacia oleracea) | suppressed high-fat diet intake | inhibited | inhibited | suppressed body weight gain | decreased | trend toward decrease | enhanced | improved | enhanced | decreasing trend | significantly decreased | decreasing trend | significantly decreased | significantly decreased | decreasing trend | significantly decreased | anxiolytic effect |
| YKLTY (listed as Spinacia oleracea) [Rubisco-derived peptide, synthesized by solid-phase Fmoc method; contained in green leaf Rubisco digested product B] | suppressed high-fat diet intake |  |  |  |  |  | enhanced |  |  |  |  |  |  |  |  |  |  |
